Patent US9939451B2, “Biomarker for detecting white matter stroke, containing toll-like receptor 2, and medical use of toll-like receptor 2” (AJOU UNIVERSITY INDUSTRY—ACADEMIC COOPERATION FOUNDATION, priority 2013, dated 2018)

Tests used:
[1] = system: primary OL (oligodendrocyte) cultures exposed to oxygen-glucose deprivation; test: LDH assay of OGD-induced OL death; format: cell-based, mouse
Protocol: Primary OL cultures were prepared from cortices of newborn C57BL/6 on postnatal day 0 (P0) to postnatal day 1 (P1), and/or TLR2 (−/−) mouse, according to the method reported in Journal of Visualized Experiment by O'Meara R. After 9-10 days in vitro, confluent mixed glial cultures were obtained. The mixed glial cultures were shaken at a temperature of about 37° C. for about 1 hour at a speed of about 200 rpm, so as to remove microglia. Afterwards, a second cycle of shaking was then performed at a temperature of about 37° C. for about 18 hours at a speed of about 250 rpm, so as to remove OLs from astrocyte monolayer. The cell suspensions obtained therefrom was plated on a bacterial grade Petri dish for about 1 hour to separate OLs from remaining microglia and astrocytes. […]
For quantification of OGD-induced OL death, LDH assay was performed using an assay kit (Takara Bio, Inc., Madison, Wis.) to measure LDH generated in a bathing medium in association with damaged OL at 24 hours after the onset of OGD challenge. The LDH level corresponding to typical cell death was determined in sister cultures exposed 1.5% Triton X-100 for 24 hours (complete cell death, CD). Baseline (BL) LDH levels were determined in a condition of only medium without OLs. Percentage of cell death in each experimental condition was calculated using a following formula. {% of OL death=(experimental value−BL)×100/(CD−BL)}

[2] = system: primary OL (oligodendrocyte) cultures exposed to oxygen-glucose deprivation; test: TUNEL staining of OGD-induced OL death; format: cell-based, mouse; details: Pam3CSK4 1 μg/ml added after 2 hours OGD; FIG. 5
Protocol: Primary OL cultures were prepared from cortices of newborn C57BL/6 on postnatal day 0 (P0) to postnatal day 1 (P1), and/or TLR2 (−/−) mouse, according to the method reported in Journal of Visualized Experiment by O'Meara R. After 9-10 days in vitro, confluent mixed glial cultures were obtained. The mixed glial cultures were shaken at a temperature of about 37° C. for about 1 hour at a speed of about 200 rpm, so as to remove microglia. Afterwards, a second cycle of shaking was then performed at a temperature of about 37° C. for about 18 hours at a speed of about 250 rpm, so as to remove OLs from astrocyte monolayer. The cell suspensions obtained therefrom was plated on a bacterial grade Petri dish for about 1 hour to separate OLs from remaining microglia and astrocytes. Purified OLs were plated on a poly-D-lysine coated 12 well (1.5×10^5 cells/well) or 96 well (1.5×10^4 cells/well) or on a 9 mm coverslip (1.0×10^4 cells/coverslip).
For OGD challenge, the purified OLs were cultured for about 1 day in a serum-free differentiation medium, washed with PBS three times, and then, transferred to an anaerobic chamber (Forma Scientific, Marietta, Ohio). […] The cells were exposed to OGD for about 2 hours, and then, transferred to a normoxic chamber. […]

Pam3CSK4
OGD-induced OL death (LDH release) ([1]; Pam3CSK4 1 μg/ml added after 2 hours OGD, LDH measured 24 hours after onset of OGD, FIG. 3): reduced the extent of OGD-induced OL death
OGD-induced OL death (summary statement) ([1]; TLR2 agonist applied after OGD to OLs cultured from WT mouse, readout not given): substantially reduced OGD-induced OL death
OGD-induced OL death (TUNEL staining) [2]: reduced the extent of OGD-induced OL death
